From ChEMBL document CHEMBL2074070, “Circumvention of breast cancer resistance protein (BCRP)-mediated resistance to camptothecins in vitro using non-substrate drugs or the BCRP inhibitor GF120918” (Clin Cancer Res, 2001)
Each block holds one compound with its values, some of them ahead of it.

Experiments:
Format in all cases: functional, cell-based
[1] = target: T1, Broad substrate specificity ATP-binding cassette transporter ABCG2 (Homo sapiens, UniProt Q9UNQ0); test: TP_TRANSPORTER: increase in Topotecan intracellular accumulation (Topotecan: 1.9 uM, GF120918: 2 uM) in T8 cells
T1 sequence (Q9UNQ0 whole entry): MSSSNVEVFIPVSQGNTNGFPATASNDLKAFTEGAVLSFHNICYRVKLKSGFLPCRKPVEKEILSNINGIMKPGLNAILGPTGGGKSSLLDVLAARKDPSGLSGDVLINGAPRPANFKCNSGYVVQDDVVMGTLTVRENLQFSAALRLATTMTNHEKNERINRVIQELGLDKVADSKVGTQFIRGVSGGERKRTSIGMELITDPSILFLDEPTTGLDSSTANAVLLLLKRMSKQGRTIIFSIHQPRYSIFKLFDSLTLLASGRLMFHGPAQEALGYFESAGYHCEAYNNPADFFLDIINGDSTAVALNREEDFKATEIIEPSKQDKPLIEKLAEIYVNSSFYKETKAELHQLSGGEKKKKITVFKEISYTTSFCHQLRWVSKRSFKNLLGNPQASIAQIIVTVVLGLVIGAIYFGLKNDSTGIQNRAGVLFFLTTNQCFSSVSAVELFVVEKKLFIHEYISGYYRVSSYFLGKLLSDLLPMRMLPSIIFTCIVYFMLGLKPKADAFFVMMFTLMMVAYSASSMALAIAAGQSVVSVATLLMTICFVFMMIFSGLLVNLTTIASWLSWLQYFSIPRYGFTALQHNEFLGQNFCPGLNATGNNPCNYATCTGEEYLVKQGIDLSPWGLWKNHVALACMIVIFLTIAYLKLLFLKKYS

[2] = target: T1, Broad substrate specificity ATP-binding cassette transporter ABCG2; test: TP_TRANSPORTER: increase in Topotecan intracellular accumulation (Topotecan: 1.9 uM, GF120918: 2 uM) in MX3 cells
[3] = target: T1, Broad substrate specificity ATP-binding cassette transporter ABCG2; test: TP_TRANSPORTER: increase of cytotoxicity by GF120918 in MX3 cells
[4] = target: T1, Broad substrate specificity ATP-binding cassette transporter ABCG2; test: TP_TRANSPORTER: increase of cytotoxicity by GF120918 in T8 cells
[5] = target: T1, Broad substrate specificity ATP-binding cassette transporter ABCG2; test: TP_TRANSPORTER: increase in intracellular accumulation by GF120918 in T8 cell

Activity [1]: inhibitor [+]
Activity [2]: inhibitor [+]
SMILES: COc1cc2c(cc1OC)CN(CCc1ccc(NC(=O)c3cccc4c(=O)c5cccc(OC)c5[nH]c34)cc1)CC2.Cl [ELACRIDAR HYDROCHLORIDE]

SMILES: CC[C@@]1(O)C(=O)OCc2c1cc1n(c2=O)Cc2c-1nc1cc(F)c(C)c3c1c2[C@@H](N)CC3 [EXATECAN]
Activity [3]: substrate []
Activity [4]: substrate []

Activity [5]: substrate [+]
SMILES: CC[C@@]1(O)C(=O)OCc2c1cc1n(c2=O)Cc2cc3c(CN(C)C)c(O)ccc3nc2-1 [TOPOTECAN]
